Test results taken from US5698691A, “Condensed cyclic compounds and their use” (Takeda Chemical Industries, Ltd., priority 1993, dated 1997).

These compounds were tested against T1, squalene synthetase (Rattus norvegicus, UniProt Q02769) (assay: Squalene synthetase inhibitory activity, rat-derived enzyme (liver microsome fraction)). Details: SD rat liver microsome fraction; 5 uM [1-3H] farnesyl pyrophosphate, 37° C., 45 minutes.
T1 construct: from tissue; host or cells: rat liver microsome fraction (SD male rat, 6 weeks old)
T1 sequence (Q02769 1-416): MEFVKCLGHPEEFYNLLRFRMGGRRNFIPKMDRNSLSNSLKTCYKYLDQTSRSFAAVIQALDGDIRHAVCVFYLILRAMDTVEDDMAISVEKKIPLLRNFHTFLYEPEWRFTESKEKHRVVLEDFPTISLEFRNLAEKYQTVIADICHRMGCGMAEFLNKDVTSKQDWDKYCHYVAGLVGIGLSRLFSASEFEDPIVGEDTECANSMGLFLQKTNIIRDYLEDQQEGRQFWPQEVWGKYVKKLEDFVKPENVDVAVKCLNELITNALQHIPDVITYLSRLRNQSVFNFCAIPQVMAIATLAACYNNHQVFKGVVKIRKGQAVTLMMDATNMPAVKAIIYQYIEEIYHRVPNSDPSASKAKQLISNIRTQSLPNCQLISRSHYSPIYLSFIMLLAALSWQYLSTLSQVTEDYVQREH
Format: biochemical
Method: Assay Method of Squalene Synthetase Inhibitory Activity
The squalene synthetase inhibitory activity was assayed as follows with the enzyme solutions described in the subsequent Experimental Examples 1 and 2.
More specifically, an enzyme solution (protein content 0.8 ug) prepared in Experimental Example 1 or 2 was added to a solution (total volume 50 μl)) containing 5 uM [1-^3 H] farnesyl pyrophosphate (specific activity 25 uCi/mole), 1 mM NADPH, 5 mM MgCl2, 6 mM glutathione, a 100 mM buffer solution of potassium phosphate (pH 7.4) and a test drug (used as an aqueous solution or a DMSO solution), then the reaction was allowed to proceed at 37° C. for 45 minutes. To the reaction mixture was added 150 μl of a mixture of chloroform and methanol (1:2) to suspend the reaction, followed by adding 50 μl of chloroform and 50 μl of a 3N aqueous solution of sodium hydroxide. 50 μl of the chloroform layer (lower layer) containing the reaction mixture having squalene as the principal component and 3 ml of toluene-based liquid scintillator were mixed, and its radioactivity was determined by means of a liquid scintillation counter.
The squalene synthetase inhibitory activity was expressed in terms of the concentration inhibiting by 50% the radioactivity taken into the chloroform layer (IC50, molar concentration (M)).
An SD male rat (6 week old) was killed by bleeding, and its liver was excised. About 10 g of the liver was washed with a saline solution cooled with ice, which was then homogenized in 15 ml of an ice-cooled buffer solution [100 mM potassium phosphate (pH 7.4), 15 mM nicotinamide, 2 mM MgCl2 ], followed by centrifugation for 20 minutes (4° C.) with 10000×g. The supernatant layer was separated and subjected to further centrifugation for 90 minutes (4° C.) at 105000×g. The sediment was then suspended in an ice-cooled 100 mM phosphate buffer solution (pH 7.4), which was again subjected to centrifugation for 90 minutes (4° C.) at 105000×g. The sediment thus obtained (microsome fraction) was suspended in an ice-cooled 100 mM potassium phosphate buffer (pH 7.4) (about 40 mg/ml protein concentration, determined with BCA protein assay kit of Pias Co., Ltd.). This suspension was used as the enzyme solution.

Compound	IC50 [µM]
CC(C)CN1C(=O)[C@@H](CC(=O)O)N=C(c2ccccc2Cl)c2cc(Cl)ccc21 [Example 13, (3R)-1-Isobutyl-7-chloro-5-(2-chlorophenyl)-2,3-dihydro-2-oxo-1H-1,4-benzodiazepine-3-acetic acid]	3.9
COc1cccc([C@@H]2S[C@@H](CC(=O)O)C(=O)N(CC(C)(C)C)c3ccc(Cl)cc32)c1OC [Example 44, (3S,5R)-7-Chloro-5-(2,3-dimethoxyphenyl)-1-neopentyl-2-oxo-1,2,3,5-tetrahydro-4,1-benzothiazepine-3-acetic acid]	0.96
CN1C(=O)[C@@H](CC(=O)O)S[C@H](c2ccccc2Cl)c2cc(Cl)ccc21 (relative stereo) [Example 10-3]	0.92
COc1ccc([C@@H]2S[C@@H](CC(=O)O)C(=O)N(CC(C)(C)C)c3ccc(Cl)cc32)c(OC)c1 [Example 50, (3S,5R)-7-Chloro-5-(2,4-dimethoxyphenyl)-1-neopentyl-2-oxo-1,2,3,5-tetrahydro-4,1-benzothiazepine-3-acetic acid]	> 1
CC(C)(C)CN1C(=O)[C@@H](CC(=O)O)S(=O)(=O)[C@H](c2ccccc2Cl)c2cc(Cl)ccc21 (relative stereo) [Example 21, 3,5-trans-7-Chloro-5-(2-chlorophenyl)-1-neopentyl-2-oxo-1,2,3,5-tetrahydro-4,1-benzothiazepine-3-acetic acid S-dioxide]	3.3
COc1ccccc1[C@H]1O[C@@H](CC(=O)O)C(=O)N(CC(C)(C)C)c2sc(Cl)cc21 (relative stereo) [Example 34, 3,5-cis-7-Chloro-5-(2-methoxyphenyl)-1-neopentyl-2-oxo-1,2,3,5-tetrahydro-4,1-thieno[2,3-e]oxazepine-3-acetic acid]	> 1

These reach a lower IC50. Values come first.

IC50 [µM]	Compound
0.7	CC(C)(C)CN1C(=O)[C@@H](CC(=O)O)[S+]([O-])[C@H](c2ccccc2Cl)c2cc(Cl)ccc21 (relative stereo) [Example 19, 3,5-trans-7-Chloro-5-(2-chlorophenyl)-1-neopentyl-2-oxo-1,2,3,5-tetrahydro-4,1-benzothiazepine-3-acetic acid S-oxide]
0.49	COc1ccccc1[C@H]1O[C@H](CC(=O)O)C(=O)N(CC(C)C)c2sc(Cl)cc21 (relative stereo) [Example 36, 3,5-trans-7-Chloro-1-isobutyl-5-(2-methoxyphenyl)-2-oxo-1,2,3,5-tetrahydro-4,1-thieno[2,3-e]oxazepine-3-acetic acid]
0.46	CC(C)(C)CN1C(=S)[C@@H](CC(=O)O)O[C@H](c2ccccc2Cl)c2cc(Cl)ccc21 (relative stereo) [Example 28, 3,5-trans-7-Chloro-5-(2-chlorophenyl)-1-neopentyl-1,2,3,4-tetrahydro-2-thioxo-4,1-benzoxazepine-3-acetic acid]
0.17	CC(C)(C)CN1C(=O)[C@@H](CC(=O)O)O[C@H](c2ccccc2Cl)c2cc(Cl)sc21 (relative stereo) [Example 31, 3,5-trans-7-Chloro-5-(2-chlorophenyl)-1-neopentyl-2-oxo-1,2,3,5-tetrahydro-4,1-thieno[2,3-e]benzoxazepine-3-acetic acid]
0.1	CCN1C(=O)[C@@H](CC(=O)O)S[C@H](c2ccccc2Cl)c2cc(Cl)ccc21 (relative stereo) [Example 10-4]
